Data taken from PMC6409085, “Three odorant-binding proteins are involved in the behavioral response of Sogatella furcifera to rice plant volatiles” (PeerJ, 2019).
“And” between values parts separate entries of the source, which are not always exact repeats. Identical values can stand only once.

Tests used:
SfurOBP1 = SfurOBP1 (Sogatella furcifera, UniProt V5T8N5); experiment: biochemical; type: binding; settings: for Fluorescence competitive binding assay, fluorescence intensity: OBP1, three replicate columns
Chain of SfurOBP1 (V5T8N5 entry or part of it): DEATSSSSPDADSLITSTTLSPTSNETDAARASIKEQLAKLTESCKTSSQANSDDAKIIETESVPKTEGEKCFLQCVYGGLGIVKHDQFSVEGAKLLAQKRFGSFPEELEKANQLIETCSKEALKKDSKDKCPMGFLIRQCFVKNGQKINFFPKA
Method in brief: (§1)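 First, 2.0 µM protein in 50 mM Tris-HCl (pH 7.4) was titrated with 1-NPN to obtain K1-NPN. Then odorants (2–20 µM final) competed against 2.0 µM 1-NPN, with fluorescence (ex 337 nm) recorded after 2 min. Ki was computed from IC50 via Ki = IC50/(1 + [1-NPN]/K1-NPN).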

SfurOBP3 = SfurOBP3 (Sogatella furcifera, UniProt V5T818); experiment: biochemical; type: binding; settings: for Fluorescence competitive binding assay, fluorescence intensity: OBP3, three replicate columns
Chain of SfurOBP3 (V5T818 entry or part of it): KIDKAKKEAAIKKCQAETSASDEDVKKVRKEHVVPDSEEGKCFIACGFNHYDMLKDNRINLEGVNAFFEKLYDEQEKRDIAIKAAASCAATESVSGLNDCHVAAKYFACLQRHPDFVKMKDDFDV
Method in brief: as §1

SfurOBP11 = SfurOBP11 (Sogatella furcifera, UniProt V5T6E3); experiment: biochemical; type: binding
Chain of SfurOBP11 (V5T6E3 entry or part of it): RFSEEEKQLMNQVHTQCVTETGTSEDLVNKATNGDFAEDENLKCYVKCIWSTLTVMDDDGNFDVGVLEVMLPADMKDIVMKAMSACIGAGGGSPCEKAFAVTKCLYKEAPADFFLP
Method in brief: as §1

SfurOBP2 = SfurOBP2 (Sogatella furcifera, UniProt V5T759); experiment: biochemical; type: binding
Chain of SfurOBP2 (V5T759 entry or part of it): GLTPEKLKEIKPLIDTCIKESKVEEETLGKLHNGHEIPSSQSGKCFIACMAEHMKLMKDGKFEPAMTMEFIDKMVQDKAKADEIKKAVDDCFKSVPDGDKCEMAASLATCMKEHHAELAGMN
Method in brief: as §1

S. furcifera adults = experiment: Y-tube olfactometer behavioral trials; type: in vivo, Sogatella furcifera; settings: odorant 50 µL/L vs hexane; adults
Method in brief: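 Single S. furcifera adults (2 days post-emergence, starved 0.5 h) chose between odorant (100 µL of 50 µL/L on filter paper) and hexane control in a glass Y-tube, charcoal-filtered humidified air 300 mL/min per arm, 25 ± 1 °C, 50% RH. Choice scored if insect passed half an arm and stayed >1 min within 10 min; 45 insects per compound, chi-squared test.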

O=Cc1ccccc1 [benzaldehyde]
IC50 (SfurOBP1): > 20 µM
Fluorescence competitive binding assay, fluorescence intensity (SfurOBP1; ligand concentration 2 (μM)): 6748 and 7004 and 6492
Fluorescence competitive binding assay, fluorescence intensity (SfurOBP1; ligand concentration 4 (μM)): 7245 and 7115 and 7374
Fluorescence competitive binding assay, fluorescence intensity (SfurOBP1; ligand concentration 6 (μM)): 6061 and 6132 and 7040
Fluorescence competitive binding assay, fluorescence intensity (SfurOBP1; ligand concentration 8 (μM)): 7119 and 7198 and 8488
Fluorescence competitive binding assay, fluorescence intensity (SfurOBP1; ligand concentration 10 (μM)): 6689 and 6820 and 6663
Fluorescence competitive binding assay, fluorescence intensity (SfurOBP1; ligand concentration 12 (μM)): 6039 and 7567 and 5952
Fluorescence competitive binding assay, fluorescence intensity (SfurOBP1; ligand concentration 14 (μM)): 5985 and 6868 and 6969
Fluorescence competitive binding assay, fluorescence intensity (SfurOBP1; ligand concentration 16 (μM)): 5390 and 5637 and 6081
Fluorescence competitive binding assay, fluorescence intensity (SfurOBP1; ligand concentration 18 (μM)): 7493 and 9048 and 6239
Fluorescence competitive binding assay, fluorescence intensity (SfurOBP1; ligand concentration 20 (μM)): 8583 and 7861 and 5961
IC50 (SfurOBP3): > 20 µM
Fluorescence competitive binding assay, fluorescence intensity (SfurOBP3; ligand concentration 2): 45330 and 44709 and 45950
Fluorescence competitive binding assay, fluorescence intensity (SfurOBP3; ligand concentration 4): 42404 and 44063 and 46652
Fluorescence competitive binding assay, fluorescence intensity (SfurOBP3; ligand concentration 6): 42957 and 46006 and 45764
Fluorescence competitive binding assay, fluorescence intensity (SfurOBP3; ligand concentration 8): 41484 and 44807 and 44761
Fluorescence competitive binding assay, fluorescence intensity (SfurOBP3; ligand concentration 10): 42296 and 40919 and 43670
Fluorescence competitive binding assay, fluorescence intensity (SfurOBP3; ligand concentration 12): 40362 and 40474 and 40259
Fluorescence competitive binding assay, fluorescence intensity (SfurOBP3; ligand concentration 14): 36140 and 35545 and 34940
Fluorescence competitive binding assay, fluorescence intensity (SfurOBP3; ligand concentration 16): 32608 and 31985 and 31371
Fluorescence competitive binding assay, fluorescence intensity (SfurOBP3; ligand concentration 18): 31185 and 31705 and 30913
Fluorescence competitive binding assay, fluorescence intensity (SfurOBP3; ligand concentration 20): 30533 and 30370 and 31330
IC50 (SfurOBP11): > 20 µM
Fluorescence intensity, fluorescence competitive binding assay, OBP11 (SfurOBP11; ligand concentration 2, replicate 1): 25700
Fluorescence intensity, fluorescence competitive binding assay, OBP11 (SfurOBP11; ligand concentration 2, replicate 2): 26420
Fluorescence intensity, fluorescence competitive binding assay, OBP11 (SfurOBP11; ligand concentration 2, replicate 3): 26489
Fluorescence intensity, fluorescence competitive binding assay, OBP11 (SfurOBP11; ligand concentration 4, replicate 1): 25103
Fluorescence intensity, fluorescence competitive binding assay, OBP11 (SfurOBP11; ligand concentration 4, replicate 2): 25939
Fluorescence intensity, fluorescence competitive binding assay, OBP11 (SfurOBP11; ligand concentration 4, replicate 3): 26917
Fluorescence intensity, fluorescence competitive binding assay, OBP11 (SfurOBP11; ligand concentration 6, replicate 1): 24540
Fluorescence intensity, fluorescence competitive binding assay, OBP11 (SfurOBP11; ligand concentration 6, replicate 2): 24263
Fluorescence intensity, fluorescence competitive binding assay, OBP11 (SfurOBP11; ligand concentration 6, replicate 3): 26004
Fluorescence intensity, fluorescence competitive binding assay, OBP11 (SfurOBP11; ligand concentration 8, replicate 1): 24810
Fluorescence intensity, fluorescence competitive binding assay, OBP11 (SfurOBP11; ligand concentration 8, replicate 2): 23717
Fluorescence intensity, fluorescence competitive binding assay, OBP11 (SfurOBP11; ligand concentration 8, replicate 3): 25921
Fluorescence intensity, fluorescence competitive binding assay, OBP11 (SfurOBP11; ligand concentration 10, replicate 1): 21750
Fluorescence intensity, fluorescence competitive binding assay, OBP11 (SfurOBP11; ligand concentration 10, replicate 2): 22655
Fluorescence intensity, fluorescence competitive binding assay, OBP11 (SfurOBP11; ligand concentration 10, replicate 3): 24544
Fluorescence intensity, fluorescence competitive binding assay, OBP11 (SfurOBP11; ligand concentration 12, replicate 1): 22377
Fluorescence intensity, fluorescence competitive binding assay, OBP11 (SfurOBP11; ligand concentration 12, replicate 2): 22204
Fluorescence intensity, fluorescence competitive binding assay, OBP11 (SfurOBP11; ligand concentration 12, replicate 3): 22549
Fluorescence intensity, fluorescence competitive binding assay, OBP11 (SfurOBP11; ligand concentration 14, replicate 1): 20889
Fluorescence intensity, fluorescence competitive binding assay, OBP11 (SfurOBP11; ligand concentration 14, replicate 2): 20823
Fluorescence intensity, fluorescence competitive binding assay, OBP11 (SfurOBP11; ligand concentration 14, replicate 3): 20954
Fluorescence intensity, fluorescence competitive binding assay, OBP11 (SfurOBP11; ligand concentration 16, replicate 1): 18305
Fluorescence intensity, fluorescence competitive binding assay, OBP11 (SfurOBP11; ligand concentration 16, replicate 2): 18429
Fluorescence intensity, fluorescence competitive binding assay, OBP11 (SfurOBP11; ligand concentration 16, replicate 3): 20008
Fluorescence intensity, fluorescence competitive binding assay, OBP11 (SfurOBP11; ligand concentration 18, replicate 1): 18084
Fluorescence intensity, fluorescence competitive binding assay, OBP11 (SfurOBP11; ligand concentration 18, replicate 2): 18788
Fluorescence intensity, fluorescence competitive binding assay, OBP11 (SfurOBP11; ligand concentration 18, replicate 3): 18463
Fluorescence intensity, fluorescence competitive binding assay, OBP11 (SfurOBP11; ligand concentration 20, replicate 1): 17844
Fluorescence intensity, fluorescence competitive binding assay, OBP11 (SfurOBP11; ligand concentration 20, replicate 2): 18414
Fluorescence intensity, fluorescence competitive binding assay, OBP11 (SfurOBP11; ligand concentration 20, replicate 3): 17540
IC50 (SfurOBP2): > 20 µM
Fluorescence competitive binding assay, OBP2 (raw fluorescence reading) (SfurOBP2; ligand concentration 2 (unit not given), replicate column 1 of 3): 15507
Fluorescence competitive binding assay, OBP2 (raw fluorescence reading) (SfurOBP2; ligand concentration 2 (unit not given), replicate column 2 of 3): 14848
Fluorescence competitive binding assay, OBP2 (raw fluorescence reading) (SfurOBP2; ligand concentration 2 (unit not given), replicate column 3 of 3): 15027
Fluorescence competitive binding assay, OBP2 (raw fluorescence reading) (SfurOBP2; ligand concentration 4 (unit not given), replicate column 1 of 3): 14937
Fluorescence competitive binding assay, OBP2 (raw fluorescence reading) (SfurOBP2; ligand concentration 4 (unit not given), replicate column 2 of 3): 13962
Fluorescence competitive binding assay, OBP2 (raw fluorescence reading) (SfurOBP2; ligand concentration 4 (unit not given), replicate column 3 of 3): 14585
Fluorescence competitive binding assay, OBP2 (raw fluorescence reading) (SfurOBP2; ligand concentration 6 (unit not given), replicate column 1 of 3): 13559
Fluorescence competitive binding assay, OBP2 (raw fluorescence reading) (SfurOBP2; ligand concentration 6 (unit not given), replicate column 2 of 3): 14529
Fluorescence competitive binding assay, OBP2 (raw fluorescence reading) (SfurOBP2; ligand concentration 6 (unit not given), replicate column 3 of 3): 14868
Fluorescence competitive binding assay, OBP2 (raw fluorescence reading) (SfurOBP2; ligand concentration 8 (unit not given), replicate column 1 of 3): 13310
Fluorescence competitive binding assay, OBP2 (raw fluorescence reading) (SfurOBP2; ligand concentration 8 (unit not given), replicate column 2 of 3): 14622
Fluorescence competitive binding assay, OBP2 (raw fluorescence reading) (SfurOBP2; ligand concentration 8 (unit not given), replicate column 3 of 3): 14449
Fluorescence competitive binding assay, OBP2 (raw fluorescence reading) (SfurOBP2; ligand concentration 10 (unit not given), replicate column 1 of 3): 13559
Fluorescence competitive binding assay, OBP2 (raw fluorescence reading) (SfurOBP2; ligand concentration 10 (unit not given), replicate column 2 of 3): 13459
Fluorescence competitive binding assay, OBP2 (raw fluorescence reading) (SfurOBP2; ligand concentration 10 (unit not given), replicate column 3 of 3): 14101
Fluorescence competitive binding assay, OBP2 (raw fluorescence reading) (SfurOBP2; ligand concentration 12 (unit not given), replicate column 1 of 3): 13500
Fluorescence competitive binding assay, OBP2 (raw fluorescence reading) (SfurOBP2; ligand concentration 12 (unit not given), replicate column 2 of 3): 13742
Fluorescence competitive binding assay, OBP2 (raw fluorescence reading) (SfurOBP2; ligand concentration 12 (unit not given), replicate column 3 of 3): 13318
Fluorescence competitive binding assay, OBP2 (raw fluorescence reading) (SfurOBP2; ligand concentration 14 (unit not given), replicate column 1 of 3): 12764
Fluorescence competitive binding assay, OBP2 (raw fluorescence reading) (SfurOBP2; ligand concentration 14 (unit not given), replicate column 2 of 3): 13284
Fluorescence competitive binding assay, OBP2 (raw fluorescence reading) (SfurOBP2; ligand concentration 14 (unit not given), replicate column 3 of 3): 13618
Fluorescence competitive binding assay, OBP2 (raw fluorescence reading) (SfurOBP2; ligand concentration 16 (unit not given), replicate column 1 of 3): 12066
Fluorescence competitive binding assay, OBP2 (raw fluorescence reading) (SfurOBP2; ligand concentration 16 (unit not given), replicate column 2 of 3): 12546
Fluorescence competitive binding assay, OBP2 (raw fluorescence reading) (SfurOBP2; ligand concentration 16 (unit not given), replicate column 3 of 3): 12131
Fluorescence competitive binding assay, OBP2 (raw fluorescence reading) (SfurOBP2; ligand concentration 18 (unit not given), replicate column 1 of 3): 11847
Fluorescence competitive binding assay, OBP2 (raw fluorescence reading) (SfurOBP2; ligand concentration 18 (unit not given), replicate column 2 of 3): 12489
Fluorescence competitive binding assay, OBP2 (raw fluorescence reading) (SfurOBP2; ligand concentration 18 (unit not given), replicate column 3 of 3): 12075
Fluorescence competitive binding assay, OBP2 (raw fluorescence reading) (SfurOBP2; ligand concentration 20 (unit not given), replicate column 1 of 3): 11984
Fluorescence competitive binding assay, OBP2 (raw fluorescence reading) (SfurOBP2; ligand concentration 20 (unit not given), replicate column 2 of 3): 12356
Fluorescence competitive binding assay, OBP2 (raw fluorescence reading) (SfurOBP2; ligand concentration 20 (unit not given), replicate column 3 of 3): 11918
number of insects choosing hexane arm (S. furcifera adults): 10
number of insects choosing volatilies arm (S. furcifera adults): 7
number of insects failed (no choice) (S. furcifera adults): 23
